Our source for the Ki values is ChEMBL document CHEMBL1137154, “Phenylethanolamine N-methyltransferase inhibition: re-evaluation of kinetic data” (Bioorg Med Chem Lett, 2004).

The assay addresses T1, Phenylethanolamine N-methyltransferase (Homo sapiens, UniProt P11086).
T1 sequence (P11086 whole entry): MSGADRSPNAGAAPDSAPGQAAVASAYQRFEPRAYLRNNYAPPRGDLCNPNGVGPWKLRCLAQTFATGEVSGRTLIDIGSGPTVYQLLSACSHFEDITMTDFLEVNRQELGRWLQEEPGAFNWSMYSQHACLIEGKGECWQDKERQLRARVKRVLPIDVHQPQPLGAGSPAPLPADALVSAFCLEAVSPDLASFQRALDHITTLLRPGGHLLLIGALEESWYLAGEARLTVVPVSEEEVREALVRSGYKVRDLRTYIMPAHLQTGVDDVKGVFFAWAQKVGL
The assay is described as follows: Inhibitory binding affinity for phenylethanolamine N-methyl-transferase (PNMT).

`CC(N)c1cccc(Cl)c1Cl` (stereo unspecified) yielded a Ki of 90 nM.
